Our source for the IC50 values is patent US10385056B2, “4-substituted pyrrolo[2,3-d]pyrimidine compound and use thereof” (JIANGSU CAREFREE PHARMACEUTICAL CO., LTD, priority 2014, dated 2019).

One assay has as its target JAK1 (Homo sapiens, UniProt P23458). Put plainly: Caliper Mobility Shift Assay, kinase inhibition. The format is biochemical. To be noted: ATP by Km value.
In another assay the target is JAK2 (Homo sapiens, UniProt O60674). Kind of assay: Caliper Mobility Shift Assay, kinase inhibition. In kind it is biochemical. The note with it: ATP by Km value.
Chain of JAK2 (O60674 whole entry, species assumed): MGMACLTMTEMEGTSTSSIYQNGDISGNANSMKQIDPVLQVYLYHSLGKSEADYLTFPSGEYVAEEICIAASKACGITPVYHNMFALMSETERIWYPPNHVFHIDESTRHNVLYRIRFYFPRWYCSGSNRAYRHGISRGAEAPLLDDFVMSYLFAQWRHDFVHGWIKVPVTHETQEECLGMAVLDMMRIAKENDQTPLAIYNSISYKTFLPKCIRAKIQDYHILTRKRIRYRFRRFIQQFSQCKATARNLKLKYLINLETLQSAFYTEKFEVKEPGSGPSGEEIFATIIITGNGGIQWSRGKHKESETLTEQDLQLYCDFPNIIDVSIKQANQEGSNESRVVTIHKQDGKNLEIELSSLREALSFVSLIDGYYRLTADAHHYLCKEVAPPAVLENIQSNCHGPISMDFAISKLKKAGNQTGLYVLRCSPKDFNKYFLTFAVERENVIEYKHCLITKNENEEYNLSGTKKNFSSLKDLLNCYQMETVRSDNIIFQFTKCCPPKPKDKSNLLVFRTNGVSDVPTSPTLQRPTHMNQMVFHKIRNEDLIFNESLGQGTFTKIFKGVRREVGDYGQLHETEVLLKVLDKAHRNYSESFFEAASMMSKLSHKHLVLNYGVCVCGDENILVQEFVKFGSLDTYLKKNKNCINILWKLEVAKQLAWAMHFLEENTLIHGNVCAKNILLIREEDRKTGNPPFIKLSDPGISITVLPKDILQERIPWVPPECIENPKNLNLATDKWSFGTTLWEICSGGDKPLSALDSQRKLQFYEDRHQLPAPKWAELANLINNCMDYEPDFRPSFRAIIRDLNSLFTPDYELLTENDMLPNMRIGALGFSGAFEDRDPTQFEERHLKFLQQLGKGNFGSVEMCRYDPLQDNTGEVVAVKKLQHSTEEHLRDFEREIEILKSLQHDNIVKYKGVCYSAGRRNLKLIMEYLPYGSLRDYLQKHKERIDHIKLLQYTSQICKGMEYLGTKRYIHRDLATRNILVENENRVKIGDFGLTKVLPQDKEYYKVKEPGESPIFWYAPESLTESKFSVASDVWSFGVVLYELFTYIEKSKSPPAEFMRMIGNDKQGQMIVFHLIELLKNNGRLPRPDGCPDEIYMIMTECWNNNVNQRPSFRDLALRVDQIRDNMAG
A further assay has as its target T1, JAK3 (Homo sapiens, UniProt P52333).
T1 sequence (P52333 1-1124): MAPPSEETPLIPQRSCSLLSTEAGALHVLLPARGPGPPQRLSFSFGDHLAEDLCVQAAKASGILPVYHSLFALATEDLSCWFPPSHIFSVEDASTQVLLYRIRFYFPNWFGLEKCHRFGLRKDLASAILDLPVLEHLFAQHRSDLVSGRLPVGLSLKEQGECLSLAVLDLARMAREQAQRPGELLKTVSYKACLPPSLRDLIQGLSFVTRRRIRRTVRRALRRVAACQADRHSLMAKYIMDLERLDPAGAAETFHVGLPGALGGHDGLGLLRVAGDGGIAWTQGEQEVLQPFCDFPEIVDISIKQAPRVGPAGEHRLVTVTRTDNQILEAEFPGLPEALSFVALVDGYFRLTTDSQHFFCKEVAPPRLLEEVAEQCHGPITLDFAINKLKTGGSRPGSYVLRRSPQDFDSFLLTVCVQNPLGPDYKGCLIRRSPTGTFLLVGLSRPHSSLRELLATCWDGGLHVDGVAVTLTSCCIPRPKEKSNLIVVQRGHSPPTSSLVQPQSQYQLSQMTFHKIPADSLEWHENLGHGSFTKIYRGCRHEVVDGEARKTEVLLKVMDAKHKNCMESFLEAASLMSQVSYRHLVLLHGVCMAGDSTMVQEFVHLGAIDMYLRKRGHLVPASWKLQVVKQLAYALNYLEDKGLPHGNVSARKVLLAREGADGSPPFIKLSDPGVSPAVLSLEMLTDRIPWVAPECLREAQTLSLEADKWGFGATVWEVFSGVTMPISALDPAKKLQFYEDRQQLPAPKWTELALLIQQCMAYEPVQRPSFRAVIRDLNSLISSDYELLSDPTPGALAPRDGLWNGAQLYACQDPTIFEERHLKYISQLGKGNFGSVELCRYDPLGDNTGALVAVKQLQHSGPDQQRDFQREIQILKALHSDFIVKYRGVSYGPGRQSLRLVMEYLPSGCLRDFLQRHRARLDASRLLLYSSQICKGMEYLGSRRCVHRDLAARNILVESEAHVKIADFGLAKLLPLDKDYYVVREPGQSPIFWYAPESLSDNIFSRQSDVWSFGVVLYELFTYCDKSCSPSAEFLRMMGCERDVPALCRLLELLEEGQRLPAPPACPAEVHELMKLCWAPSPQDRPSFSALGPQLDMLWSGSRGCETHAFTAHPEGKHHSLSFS
Put plainly: Caliper Mobility Shift Assay, kinase inhibition. To be noted: ATP by Km value. The format is biochemical.

The subject of another assay is phosphorylated JAK1. Kind of assay: CTLL-2 cells, IL-2 stimulated, Western blot of phosphorylation. The note with it: Mus musculus, starved 6 h with compound, IL-2 150 U/mL 10 min, phosphorylated JAK1 by Western blot, read-out: IC50 g (nM) JAK1. The format is cell-based. The protocol: (§1) Incubating for 10 min and collecting cells. Adding cell lysis buffer for cell lysis. Collecting protein to perform WEST-Blot detection, detecting phosphorylated JAK1, the phosphorylation of JAK2 and the phosphorylated STAT5, and obtaining the IC50 value.

A further assay relates to phosphorylated STAT5. The assay is described as above. In kind it is cell-based. To be noted: Mus musculus, starved 6 h with compound, IL-2 150 U/mL 10 min, phosphorylated STAT5 by Western blot, read-out: IC50 g (nM) STAT5. The protocol:
as §1

The next assay relates to phosphorylation of JAK2. The description is as above. In kind it is cell-based. To be noted: Mus musculus, starved 6 h with compound, IL-2 150 U/mL 10 min, phosphorylation of JAK2 by Western blot, read-out: IC50 g (nM) JAK2. The protocol: as §1

Chain of JAK1 (P23458 whole entry, species assumed): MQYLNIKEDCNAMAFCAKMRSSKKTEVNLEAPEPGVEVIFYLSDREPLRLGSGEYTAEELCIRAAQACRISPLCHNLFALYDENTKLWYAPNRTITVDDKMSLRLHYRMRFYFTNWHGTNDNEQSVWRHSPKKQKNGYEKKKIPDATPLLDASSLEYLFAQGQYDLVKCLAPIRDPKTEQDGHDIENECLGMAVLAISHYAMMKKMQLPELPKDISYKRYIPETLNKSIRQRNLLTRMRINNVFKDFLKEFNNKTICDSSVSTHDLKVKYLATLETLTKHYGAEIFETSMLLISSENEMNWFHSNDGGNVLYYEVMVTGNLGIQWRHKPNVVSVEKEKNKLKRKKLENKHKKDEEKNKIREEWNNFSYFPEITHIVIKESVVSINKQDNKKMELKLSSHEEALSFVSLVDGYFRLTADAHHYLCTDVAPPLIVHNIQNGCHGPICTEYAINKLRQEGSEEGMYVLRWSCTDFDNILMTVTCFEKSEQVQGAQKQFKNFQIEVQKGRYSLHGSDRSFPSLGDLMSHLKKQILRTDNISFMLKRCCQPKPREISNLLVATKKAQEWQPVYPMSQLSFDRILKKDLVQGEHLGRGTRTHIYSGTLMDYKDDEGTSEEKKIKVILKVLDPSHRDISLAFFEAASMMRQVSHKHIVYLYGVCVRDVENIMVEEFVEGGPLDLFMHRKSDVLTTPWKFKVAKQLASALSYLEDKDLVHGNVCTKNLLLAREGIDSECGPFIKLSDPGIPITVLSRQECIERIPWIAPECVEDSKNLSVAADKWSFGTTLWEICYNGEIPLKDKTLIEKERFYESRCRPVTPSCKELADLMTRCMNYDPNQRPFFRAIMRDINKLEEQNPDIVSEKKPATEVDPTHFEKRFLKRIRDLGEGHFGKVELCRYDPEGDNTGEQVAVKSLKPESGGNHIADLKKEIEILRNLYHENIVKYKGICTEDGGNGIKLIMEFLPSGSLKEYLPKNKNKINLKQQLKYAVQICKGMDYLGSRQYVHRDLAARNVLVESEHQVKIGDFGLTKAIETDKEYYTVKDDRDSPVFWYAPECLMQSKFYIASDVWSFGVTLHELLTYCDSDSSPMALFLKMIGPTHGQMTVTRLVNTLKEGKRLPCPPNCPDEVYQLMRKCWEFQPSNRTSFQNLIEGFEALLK

Turning to `CCS(=O)(=O)N1CC(CC#N)(n2cc(-c3ncnc4[nH]ccc34)c3ccccc32)C1` [Example 1, 2-(3-(3-(7H-pyrrole[2,3-d]pyrimidine-4-yl)-1H-indole-1-yl)-1-(ethylsulfonyl)azetidine-3-yl)acetonitrile], the IC50 was 11 nM at JAK1; 1.1 nM on JAK2; 100 nM on JAK3; 26.3 nM with phosphorylated JAK1; 125 nM in the assay on phosphorylated STAT5; 18.4 nM in the assay on phosphorylation of JAK2.
As for `CC(C)S(=O)(=O)N1CC(CC#N)(n2cc(-c3ncnc4[nH]ccc34)c3ccc(Cl)cc32)C1` [Example 28, 2-(1-(isopropylsulfonyl)-3-(6-chloro-3-(7H-pyrrole[2,3-d]pyrimidine-4-yl)-1H-indole-1-yl)azetidine-3-yl)acetonitrile], the values for the IC50 on JAK1, at JAK2 and on JAK3 were 6.5 nM, 2.4 nM and 64 nM, respectively.
On to `N#CCC1(n2cc(-c3ncnc4[nH]ccc34)c3ccccc32)CN(S(=O)(=O)N2CCCC2)C1` [Example 10], for which the IC50 turned out to be 7 nM at JAK1, 3.5 nM at JAK2 and 67 nM at JAK3.
For `CCS(=O)(=O)N1CC(CC#N)(n2cc(-c3ncnc4[nH]ccc34)c3cc(F)ccc32)C1` [Example 62, 2-(1-(ethylsulfonyl)-3-(5-fluoro-3-(7H-pyrrole[2,3-d]pyrimidine-4-yl)-1H-indole-1-yl)azetidine-3-yl)acetonitrile], the IC50 is 3.6 nM on JAK1; 1 nM on JAK2; 30 nM at JAK3; 33.9 nM in the assay with phosphorylated JAK1; 130 nM in the assay with phosphorylated STAT5; 29.9 nM in the assay on phosphorylation of JAK2.
Take `CCS(=O)(=O)N1CC(CC#N)(n2cc(-c3ncnc4[nH]ccc34)c3ccc(Cl)cc32)C1` [Example 26, 2-(1-(ethylsulfonyl)-3-(6-chloro-3-(7H-pyrrole[2,3-d]pyrimidine-4-yl)-1H-indole-1-yl)azetidine-3-yl)acetonitrile]: the values for the IC50 on JAK1, at JAK2 and at JAK3 were 3.5 nM, 0.72 nM and 34 nM, respectively.
The matching figures for `CCS(=O)(=O)N1CC(CC#N)(n2cc(-c3ncnc4[nH]ccc34)c3cc(F)cc(F)c32)C1` [Example 47, 2-(1-(ethylsulfonyl)-3-(5,7-difluoro-3-(7H-pyrrole[2,3-d]pyrimidine-4-yl)-1H-indole-1-yl)azetidine-3-yl)acetonitrile]: 30.5 nM, 11.6 nM and 58 nM.
In the case of `CCS(=O)(=O)N1CC(CC#N)(n2cc(-c3ncnc4[nH]ccc34)c3c(F)ccc(F)c32)C1` [Example 48, 2-(1-(ethylsulfonyl)-3-(5,8-difluoro-3-(7H-pyrrole[2,3-d]pyrimidine-4-yl)-1H-indole-1-yl)azetidine-3-yl)acetonitrile], the values for the IC50 at JAK1, at JAK2 and on JAK3 were 10.5 nM, 4.6 nM and 72 nM, respectively.
With `N#CCC1(n2cc(-c3ncnc4[nH]ccc34)c3ccccc32)CN(C(=O)[C@@H]2CCCN2)C1` (stereo in doubt) [Example 11, 2-(3-(3-(7H-pyrrole[2,3-d]pyrimidine-4-yl)-1H-indole-1-yl)-1-(pyrrolidine-2-carbonyl)azetidine-3-yl)acetonitrile], the IC50 at JAK1 turned out to be 300 nM; at JAK2 it was 692 nM; at JAK3, 521 nM; with phosphorylated JAK1 it was 30 nM; with phosphorylated STAT5, 692 nM; in the assay with phosphorylation of JAK2 it was 192 nM.
Turning to `CCS(=O)(=O)N1CC(CC#N)(n2cc(-c3ncnc4[nH]ccc34)c3ccc(CC(F)(F)F)cc32)C1` [Example 53, 2-(1-(ethylsulfonyl)-3-(6-trifluoroethyl-3-(7H-pyrrole[2,3-d]pyrimidine-4-yl)-1H-indole-1-yl)azetidine-3-yl)acetonitrile], the half-inhibitory concentration (IC50) on JAK1 stood at 5.4 nM; on JAK2, 1.4 nM; at JAK3, 17 nM.
In the case of `CS(=O)(=O)N1CC(CC#N)(n2cc(-c3ncnc4[nH]ccc34)c3ccccc32)C1` [Example 2, 2-(3-(3-(7H-pyrrole[2,3-d]pyrimidine-4-yl)-1H-indole-1-yl)-1-(methylsulfonyl)azetidine-3-yl)acetonitrile], the IC50 was determined as 8 nM at JAK1; 0.9 nM at JAK2; 128 nM at JAK3; 146 nM in the assay on phosphorylated STAT5; 5.4 nM with phosphorylation of JAK2.
On to `CCS(=O)(=O)N1CC(CC#N)(n2cc(-c3ncnc4[nH]ccc34)c3ccc(Br)cc32)C1` [Example 31, 2-(1-(ethylsulfonyl)-3-(6-bromo-3-(7H-pyrrole[2,3-d]pyrimidine-4-yl)-1H-indole-1-yl)azetidine-3-yl)acetonitrile], for which the IC50 was found to be 3.5 nM on JAK1, 8.3 nM at JAK2 and 21 nM at JAK3.
For the molecule `CCS(=O)(=O)N1CC(CC#N)(n2cc(-c3ncnc4[nH]ccc34)c3cc(C(F)(F)F)ccc32)C1` [Example 63, 2-(1-(ethylsulfonyl)-3-(5-trifluoromethyl-3-(7H-pyrrole[2,3-d]pyrimidine-4-yl)-1H-indole-1-yl)azetidine-3-yl)acetonitrile], the IC50 is 7.9 nM at JAK1; 2.4 nM at JAK2; 232 nM at JAK3; 75.2 nM in the assay with phosphorylated JAK1; 196 nM with phosphorylated STAT5; 38.3 nM with phosphorylation of JAK2.
Regarding `CCOc1ccc2c(-c3ncnc4[nH]ccc34)cn(C3(CC#N)CN(S(=O)(=O)CC)C3)c2c1` [Example 59, 2-(1-(ethylsulfonyl)-3-(6-ethoxyl-3-(7H-pyrrole[2,3-d]pyrimidine-4-yl)-1H-indole-1-yl)azetidine-3-yl)acetonitrile], the IC50 at JAK1 was determined as 25.4 nM; at JAK2, 2.8 nM; on JAK3, 90 nM.
Take `CS(=O)(=O)N1CC(CC#N)(n2cc(-c3ncnc4[nH]ccc34)c3ccc(F)c(F)c32)C1` [Example 32, 2-(1-(methylsulfonyl)-3-(5,6-difluoro-3-(7H-pyrrole[2,3-d]pyrimidine-4-yl)-1H-indole-1-yl)azetidine-3-yl)acetonitrile]: the values for the IC50 on JAK1, at JAK2 and at JAK3 were 4.5 nM, 6.3 nM and 124 nM, respectively.
The matching figures for `CCS(=O)(=O)N1CC(CC#N)(n2cc(-c3ncnc4[nH]ccc34)c3ccc(C)cc32)C1` [Example 54, 2-(1-(ethylsulfonyl)-3-(6-methyl-3-(7H-pyrrole[2,3-d]pyrimidine-4-yl)-1H-indole-1-yl)azetidine-3-yl)acetonitrile]: 15.2 nM, 2.5 nM and 36 nM.
In the case of `CCCS(=O)(=O)N1CC(CC#N)(n2cc(-c3ncnc4[nH]ccc34)c3c(F)cc(F)cc32)C1` [Example 43, 2-(1-(propylsulfonyl)-3-(6,8-difluoro-3-(7H-pyrrole[2,3-d]pyrimidine-4-yl)-1H-indole-1-yl)azetidine-3-yl)acetonitrile], the IC50 at JAK1 was 13.3 nM; at JAK2 it was 28.4 nM; at JAK3, 67 nM.
The corresponding values for `CCS(=O)(=O)N1CC(CC#N)(n2cc(-c3ncnc4[nH]ccc34)c3ccc(CC#N)cc32)C1` [Example 51, 2-(1-(ethylsulfonyl)-3-(6-ethylcyano-3-(7H-pyrrole[2,3-d]pyrimidine-4-yl)-1H-indole-1-yl)azetidine-3-yl)acetonitrile] are 45.5 nM, 41.6 nM and 172 nM.
